This is an account of results in US20220143184A1, “MITOCHONDRION/RIBONUCLEIC ACID-TARGETED AND MIGRATABLE PHOTOSENSITIZED PROBE AND APPLICATION THEREOF” (SHENZHEN INSTITUTES OF ADVANCED TECHNOLOGY, priority 2019, published 2022).

The nature of this assay: Singlet oxygen generation in aqueous solution, ABDA absorbance (Example 8, Experiment 2). As to conditions: 2 μM, without RNA, 50 μM ABDA, white light 300 mW/cm^2, 0-6 min. The format is physicochemical. Here is the method: Different reactive oxygen indicators were added to the photosensitized probe aqueous solution, and the fluorescence or absorption spectra were measured. Four experiments were conducted as follows:
50 μM ABDA was added to the aqueous solutions of PBS, 2 μM photosensitized probe, 2 μM photosensitized probe+0.8 mM RNA, and 2 μM RB (a commercial singlet oxygen-generating photosensitizer). These solutions were irradiated for 0-6 min with the white light (300 mW/cm^2) of the xenon lamp, absorption spectra at 300-600 nm were measured, and the absorbance values at 378 nm were recorded to indicate the generation rate of singlet oxygen.

On to `O=C1OC2(c3cc(I)c(O)c(I)c3Oc3c2cc(I)c(O)c3I)c2c(Cl)c(Cl)c(Cl)c(Cl)c21` [RB, Rose Bengal B, reference compound], for which the “absorbance of ABDA at 378 nm with light irradiation” value was “decreases much faster”.
